Laboratory results from US20190060473A1, “HSP90 INHIBITOR DRUG CONJUGATES” (priority 2016, published 2019).
pIC50, pKd: −log10 of the molar value.

Assays:
[1] = system: HER2 expression in BT-474 human breast cancer cells; assay: In-Cell Western assay (ICW) for HER2 expression in BT-474 cells; type: cell-based; details: BT-474 cells, 24 h incubation, 3-fold serial dilutions, HER2 signal normalized to DRAQ5; read-out: HER2 (ICW)
Description: The HDCs as described herein were used in various experiments to determine their activity and properties, such as binding affinity and stability in blood. An in-Cell Western assay (ICW) for HER2 expression was carried out in BT-474 human breast cancer cells. BT-474 cells were seeded in 96-well plates at a density of 20,000 cells per well. Twenty-four hours after plating, cells were dosed with graded concentrations of HDCs using 3-fold serial dilutions and incubated for 24 h. Growth media containing drug was aspirated off. Cells were then fixed in 4% paraformaldehyde for 20 min and washed three times in 0.1% Triton X-100. After blocking for 1.5 h in Odyssey Blocking Buffer (LI-COR, Lincoln, Nebr., USA), cells were incubated with primary HER2 antibody overnight at 4° C. Wells were washed three times with 0.1% Tween-20 and incubated in secondary antibody (LI-COR, Lincoln, Nebr., USA) and DRAQ5 (CST, Beverly, Mass., USA) for 1 h. Following 3 final washes with 0.1% Tween-20, antibody-antigen complexes were visualized using the Odyssey system. For quantification, HER2 signal was normalized to DRAQ5 flourescent probe.

[2] = Metabolic stability in mouse whole blood (LC-MS/MS); type: in vitro ADME; details: mouse whole blood, 10 μM, percent of test compound remaining after 1 hour, average of duplicate
Description: Metabolic stability of various HDCs was tested in mouse blood. All compounds were tested at a concentration of 10 μM. The time dependent disappearance of test compound in mouse whole blood, and the release of the compound qualitatively as determined by liquid chromatography tandem mass spectrometry (LC-MS/MS), was tested at time points of 15 minutes, 30 minutes, 45 minutes and 1 hour. All compounds were tested in duplicate, and the average was taken. The results in Table 2 show the percent of test compound remaining after 1 hour.

[3] = molecular target: Hsp90; assay: Binding affinity (Kd) by standard methods
Description: Finally, binding affinity (Kd) was determined for various HDCs using standard methods.

In the case of `CCNC(=O)c1nnc(-c2cc(C(C)C)c(O)cc2O)n1-c1ccc(CN2CCC(C(=O)N3CCC(C(=O)OC[C@@H](NC(=O)c4cc(-c5cc(NC(C)C)ncc5Cl)c[nH]4)c4cccc(Cl)c4)CC3)CC2)c(F)c1` [SDC-TRAP-0510, (S)-2-(4-(5-chloro-2-(isopropylamino)pyridin-4-yl)-1H-pyrrole-2-carboxamido)-2-(3-chlorophenyl)ethyl 1-(1-(4-(3-(2,4-dihydroxy-5-isopropylphenyl)-5-(ethylcarbamoyl)-4H-1,2,4-triazol-4-yl)-2-fluorobenzyl)piperidine-4-carbonyl)piperidine-4-carboxylate], the pIC50 [1] was 7.04, the “Mouse blood stability 1 h (% remaining)” value [2] was 77.1% and the pKd [3] was 8.21.
In the case of `CC(C)Nc1cc(-c2c[nH]c(C(=O)N[C@H](COC(=O)C3CCN(C(=O)C4CCN(Cc5ccc(-n6c(O)nnc6-c6cc(C(C)C)c(O)cc6O)cc5F)CC4)CC3)c3cccc(Cl)c3)c2)c(Cl)cn1` [SDC-TRAP-0511, (S)-2-(4-(5-chloro-2-(isopropylamino)pyridin-4-yl)-1H-pyrrole-2-carboxamido)-2-(3-chlorophenyl)ethyl 1-(1-(4-(3-(2,4-dihydroxy-5-isopropylphenyl)-5-hydroxy-4H-1,2,4-triazol-4-yl)-2-fluorobenzyl)piperidine-4-carbonyl)piperidine-4-carboxylate], the pIC50 [1] was 6.33, the “Mouse blood stability 1 h (% remaining)” value [2] was 30.8% and the pKd [3] was 8.54.
For `CC(C)Nc1cc(-c2c[nH]c(C(=O)N[C@H](COC(=O)CC3CCN(C(=O)C4CCN(Cc5ccc(-n6c(O)nnc6-c6cc(C(C)C)c(O)cc6O)cc5F)CC4)CC3)c3cccc(Cl)c3)c2)c(Cl)cn1` [SDC-TRAP-0513, (S)-2-(4-(5-chloro-2-(isopropylamino)pyridin-4-yl)-1H-pyrrole-2-carboxamido)-2-(3-chlorophenyl)ethyl 2-(1-(1-(4-(3-(2,4-dihydroxy-5-isopropylphenyl)-5-hydroxy-4H-1,2,4-triazol-4-yl)-2-fluorobenzyl)piperidine-4-carbonyl)piperidin-4-yl)acetate], the pIC50 [1] was 6.28, the “Mouse blood stability 1 h (% remaining)” value [2] was 48.2% and the pKd [3] was 9.06.
In the case of `CCNC(=O)c1nnc(-c2cc(C(C)C)c(O)cc2O)n1-c1ccc(CN2CCC(C(=O)N3CC(C(=O)OC[C@@H](NC(=O)c4cc(-c5cc(NC(C)C)ncc5Cl)c[nH]4)c4cccc(Cl)c4)C3)CC2)c(F)c1` [SDC-TRAP-0515, (S)-2-(4-(5-chloro-2-(isopropylamino)pyridin-4-yl)-1H-pyrrole-2-carboxamido)-2-(3-chlorophenyl)ethyl 1-(1-(4-(3-(2,4-dihydroxy-5-isopropylphenyl)-5-(ethylcarbamoyl)-4H-1,2,4-triazol-4-yl)-2-fluorobenzyl)piperidine-4-carbonyl)azetidine-3-carboxylate], the pIC50 [1] was 6.74, the “Mouse blood stability 1 h (% remaining)” value [2] was 30% and the pKd [3] was 9.01.
With `CCNC(=O)c1nnc(-c2cc(C(C)C)c(O)cc2O)n1-c1ccc(CN2CCC(C(=O)N3CC[C@H](C(=O)OC[C@@H](NC(=O)c4cc(-c5cc(NC(C)C)ncc5Cl)c[nH]4)c4cccc(Cl)c4)C3)CC2)c(F)c1` [SDC-TRAP-0516, (S)-(S)-2-(4-(5-chloro-2-(isopropylamino)pyridin-4-yl)-1H-pyrrole-2-carboxamido)-2-(3-chlorophenyl)ethyl 1-(1-(4-(3-(2,4-dihydroxy-5-isopropylphenyl)-5-(ethylcarbamoyl)-4H-1,2,4-triazol-4-yl)-2-fluorobenzyl)piperidine-4-carbonyl)pyrrolidine-3-carboxylate] the pIC50 [1] was 6.91, the “Mouse blood stability 1 h (% remaining)” value [2] was 55.5% and the pKd [3] was 8.89.
`CCNC(=O)c1nnc(-c2cc(C(C)C)c(O)cc2O)n1-c1ccc(C(=O)N(C)[C@@H](C(=O)N[C@H](C(=O)N(C)C([C@@H](C)CC)[C@@H](CC(=O)N2CCC[C@@H]2[C@@H](OC)[C@@H](C)C(=O)N[C@@H](C)[C@H](O)c2ccccc2)OC)C(C)C)C(C)C)cc1` (stereo partly drawn) [SDC-TRAP-0536, 5-(2,4-dihydroxy-5-isopropylphenyl)-N-ethyl-4-(4-(((2R)-1-(((2S)-1-(((3R,5S)-1-((R)-2-((1S,2R)-3-(((1R,2S)-1-hydroxy-1-phenylpropan-2-yl)amino)-1-methoxy-2-methyl-3-oxopropyl)pyrrolidin-1-yl)-3-methoxy-5-methyl-1-oxoheptan-4-yl)(methyl)amino)-3-methyl-1-oxobutan-2-yl)amino)-3-methyl-1-oxobutan-2-yl)(methyl)carbamoyl)phenyl)-4H-1,2,4-triazole-3-carboxamide] showed a pKd [3] of 9.11.
